# Patent publication US20150119410A1, “BIOMARKERS OF RESPONSE TO NAE INHIBITORS” (MILLENNIUM PHARMACEUTICALS, INC., priority 2011, published 2015)
# How the values were obtained:
# Assay in all cases: Cell line panel 1 viability screen
# Type in all cases: cell-based
# MKN28 = conditions: Homo sapiens, MKN-28; MKN28 (stomach); 2 μM MLN4924, 72 hours; DMSO control about 1
# Method: (§1) To support clinical development and identify potential biomarkers of tumor sensitivity or resistance, two large cancer cell line panels (Panel 1, N=653 (McDermott et al. (2007) PNAS 104:19936-19941); Panel 2, N=240 (O'Day et al. (2010) Fourth AACR International Conference on Molecular Diagnostics in Cancer Therapeutic Development)) were treated with MLN4924 and cell viability data (IC50, EC50, and POC—Percentage of Control) were generated.
# (§2) Panel 1 (McDermott et al., supra). The cell lines were exposed to three MLN4924 concentrations (20 nM, 200 nM, and 2 μM) for 72 hours. Viability, i.e., cell number, was quantified by measuring fluorescence of a cell-permeant nucleic acid stain. Mean of triplicate values for each sample were taken and compared to DMSO control to calculate percentage of control. In the results, control or no activity value is given a value of about 1, sensitivity is indicated by a value less than 1, with 0 as death of the entire cell population and resistance indicated by a value greater than 1. A continuum of viability values was obtained for each concentration, so some values were selected as cut-offs for final determination of sensitivity or resistance. For example, median POC values of less than the median value of all POC's recorded in the panel (<0.34) indicated sensitivity, values of 0.34 to 0.75 indicated borderline sensitivity, values greater than the 3rd quartile of all POC's in the panel (>0.75) insensitivity or resistance. […] Final judgment of cell line as sensitive, insensitive or resistant was determined by its viability at 2 μM.
# AN3CA = AN3CA (Uterus)
# Method: as §1, §2
# SN12C = SN12C (kidney)
# Method: as §1, §2
# NCl-H1703 = NCl-H1703 (lung NSCLC); 2 μM MLN4924, 72 hours; DMSO control about 1
# Method: as §1, §2
# HuCCT1 = HuCCT1 (Liver)
# Method: as §1, §2
# SW626 = conditions: Homo sapiens; SW626 (ovary); 2 μM MLN4924, 72 hours; DMSO control about 1
# Method: as §1, §2
# HCC1806 = HCC1806 (breast)
# Method: as §1, §2
# YAPC = YAPC (pancreas)
# Method: as §1, §2
# CAL-33 = CAL-33 (upper aerodigestive tract)
# Method: as §1, §2
# C2BBe1 = conditions: Homo sapiens; C2BBe1 (intestine); 2 μM MLN4924, 72 hours; DMSO control about 1
# Method: as §1, §2
# KU-19-19 = KU-19-19 (urinary_tract)
# Method: as §1, §2
# PANC-08-13 = PANC-08-13 (pancreas)
# Method: as §1, §2
# SW620 = system: SW620
# Method: as §1, §2
# ESS-1 = ESS-1 (Uterus)
# Method: as §1, §2
# SW1417 = conditions: Homo sapiens; SW1417 (intestine); 2 μM MLN4924, 72 hours; DMSO control about 1
# Method: as §1, §2
# NCI-H2405 = NCI-H2405 (lung)
# Method: as §1, §2
# NCl-H1581 = NCl-H1581 (lung NSCLC); 2 μM MLN4924, 72 hours; DMSO control about 1
# Method: as §1, §2
# CFPAC-1 = CFPAC-1 (pancreas)
# Method: as §1, §2
# SW 1116 = conditions: Homo sapiens; SW 1116 (intestine); 2 μM MLN4924, 72 hours; DMSO control about 1
# Method: as §1, §2
# SK-MEL-30 = conditions: Homo sapiens; SK-MEL-30 (skin); 2 μM MLN4924, 72 hours; DMSO control about 1
# Method: as §1, §2
# COLO-205 = system: COLO-205
# Method: as §1, §2
# NCl-H520 = NCl-H520 (lung NSCLC); 2 μM MLN4924, 72 hours; DMSO control about 1
# Method: as §1, §2
# CAL-62 = CAL-62 (thyroid)
# Method: as §1, §2
# [1] = Homo sapiens, 2 μM MLN4924, 72 hours, DMSO control about 1
compound,measurement,setting,value
"NS(=O)(=O)OC[C@@H]1C[C@@H](n2ccc3c(N[C@H]4CCc5ccccc54)ncnc32)C[C@@H]1O [MLN4924, ((1S,2S,4R)-4-{4-[(1S)-2,3-dihydro-1H-inden-1-ylamino]-7H-pyrrolo[2,3-d]pyrimidin-7-yl}-2-hydroxycyclopentyl)methyl sulphamate]",viability at 2 µM,MKN28,28.5%
same,Phenotype,AN3CA; FBXW7 mutant,sensitive (median POC values of less than the median value of all POC's recorded in the panel (<0.34) indicated sensitivity)
same,viability at 2 µM,"AN3CA; Homo sapiens, AN3-CA, 2 μM MLN4924, 72 hours, DMSO control about 1",19.4%
same,viability at 2 µM,SN12C; [1],33.6%
same,Phenotype,SN12C; NF2 mutant,sensitive (median POC values of less than the median value of all POC's recorded in the panel (<0.34) indicated sensitivity)
same,viability at 2 µM,NCl-H1703,11%
same,viability at 2 µM,"HuCCT1; Homo sapiens, HuCCT-1, 2 μM MLN4924, 72 hours, DMSO control about 1",12.6%
same,Phenotype,HuCCT1; FBXW7 mutant,sensitive (median POC values of less than the median value of all POC's recorded in the panel (<0.34) indicated sensitivity)
same,viability at 2 µM,SW626,55.4%
same,Phenotype,HCC1806; KDM6A mutant,sensitive (median POC values of less than the median value of all POC's recorded in the panel (<0.34) indicated sensitivity)
same,viability at 2 µM,HCC1806; [1],1.16%
same,viability at 2 µM,YAPC; [1],18.7%
same,Phenotype,YAPC; SMAD4 mutant,sensitive (median POC values of less than the median value of all POC's recorded in the panel (<0.34) indicated sensitivity)
same,Phenotype,CAL-33; SMAD4 mutant,sensitive (median POC values of less than the median value of all POC's recorded in the panel (<0.34) indicated sensitivity)
same,viability at 2 µM,CAL-33; [1],14.4%
same,viability at 2 µM,C2BBe1,71.6%
same,viability at 2 µM,KU-19-19; [1],5.8%
same,Phenotype,KU-19-19; KDM6A mutant,sensitive (median POC values of less than the median value of all POC's recorded in the panel (<0.34) indicated sensitivity)
same,viability at 2 µM,PANC-08-13; [1],77.7%
same,Phenotype,PANC-08-13; SMAD4 mutant,resistant (values greater than the 3rd quartile of all POC's in the panel (>0.75) insensitivity or resistance)
same,viability at 2 µM,"SW620; Homo sapiens, SW-620, SW620 (intestine), 2 μM MLN4924, 72 hours, DMSO control about 1",49.3%
same,Phenotype,"SW620; SW620 (large_intestine), SMAD4 mutant",insensitive (values of 0.34 to 0.75 indicated borderline sensitivity)
same,Phenotype,ESS-1; FBXW7 mutant,sensitive (median POC values of less than the median value of all POC's recorded in the panel (<0.34) indicated sensitivity)
same,viability at 2 µM,ESS-1; [1],5.29%
same,viability at 2 µM,SW1417,63.7%
same,viability at 2 µM,NCI-H2405; [1],25.5%
same,Phenotype,NCI-H2405; SMAD4 mutant,sensitive (median POC values of less than the median value of all POC's recorded in the panel (<0.34) indicated sensitivity)
same,viability at 2 µM,NCl-H1581,73.7%
same,Phenotype,CFPAC-1; SMAD4 mutant,sensitive?
same,viability at 2 µM,CFPAC-1; [1],28.2%
same,viability at 2 µM,SW 1116,116%
same,viability at 2 µM,SK-MEL-30,77.3%
same,Phenotype,"COLO-205; COLO-205 (large_intestine), SMAD4 mutant",sensitive (median POC values of less than the median value of all POC's recorded in the panel (<0.34) indicated sensitivity)
same,viability at 2 µM,"COLO-205; Homo sapiens, COLO-205 (intestine), 2 μM MLN4924, 72 hours, DMSO control about 1",14.4%
same,viability at 2 µM,NCl-H520,55.8%
same,Phenotype,CAL-62; NF2 mutant,sensitive (median POC values of less than the median value of all POC's recorded in the panel (<0.34) indicated sensitivity)
same,viability at 2 µM,CAL-62; [1],6.76%
